Here are results for one molecule from publication PMC10574094, “Discovery of a SHP2 Degrader with In Vivo Anti-Tumor Activity” (Molecules, 2023).

In one experiment the test system is pERK1/2. The experiment can be described thus: pERK1/2 inhibition by Western blotting in KYSE-520 cells. Conditions: Homo sapiens, 16 h. In kind it is cell-based. Here is the method: (§1) HEK293, SKBR3, U2OS, MCF7 and A549 cells were grown in DMEM supplemented with 10% FBS, penicillin (50 units/mL), and streptomycin (50 μg/mL) in a 37 °C incubator containing 5% CO2. KYSE-520 and H358 cells were grown in RPMI-1640 supplemented with 10% FBS, penicillin (50 units/mL), and streptomycin (50 μg/mL) in a 37 °C incubator containing 5% CO2. For western-blot analysis, protein samples were separated by SDS-PAGE, transferred to nitrocellulose membranes, and incubated overnight at 4 °C with corresponding primary antibodies diluted in 5% BSA in phosphate-buffered saline Tween (PBST). SuperSignal™ West Pico PLUS (PI34580; Thermo Scientific) was used to visualize the antibodies in the bioanalytical imaging system (Azure Biosystems c500). Anti-p-ERK1/2 (T202/Y204) (4370), and anti-ERK1/2 (4696) were purchased from Cell Signaling Technology. Anti-GAPDH (sc-365062), anti-SHP2 (sc-7384), anti-SHP1 (sc-7289), and anti-Actin (sc-8432) antibodies were purchased from Santa Cruz. Anti-PTP1B (ab244207) antibody was purchased from Abcam. For colony formation assay, a total of approximately 200–500 cells were seeded to each well in a 12-well plate. The wells were then treated with DMSO, compound P9 and 3 at 37 °C for 3 weeks, gently washed, and stained with crystal violet.
(In western blotting, separated proteins are transferred to a membrane and probed.)

For another experiment, the system named is KYSE-520 xenograft. The experiment can be described thus: KYSE-520 xenograft tumor growth. The settings on record: 18 days. Format: in vivo, mice. As for the experimental part: Experiments on mice were carried out in accordance with the regulations of the Institutional Animal Care and Use Committees at Purdue University. All mice were housed under pathogen-free conditions in the animal facility and received autoclaved water and food. Eight to ten weeks-old Nude mice were used in the study.
For the xenograft tumor study, KYSE-520 cells were suspended in PBS and a total of 3 × 10^6 cells (100 μL) were subcutaneously implanted into both the left and right flank using a 27-gauge needle. Tumor volume was calculated using the formula V = (W^2 × L)/2 for caliper measurements. Once the tumor volume reaches 200 mm^3, daily intraperitoneal injection of either control, 25 mg/kg or 50 mg/kg of compound P9 was performed. Mice were sacrificed after injection for 18 days, and tumors were collected for biochemical analysis.

For another experiment, the system named is KYSE-520 cells. The experiment can be described thus: CCK-8 cell proliferation assay. Format: cell-based. The settings on record: Homo sapiens, 168 h; KYSE-520, CCK-8, 7 days; read-out: growth inhibition IC50. As for the experimental part: The cell proliferation inhibition EC50 was determined by CCK-8 assay. KYSE-520 cells were seeded at 5 × 10^3 cells/well in 96 well plates. After 24 h, P9 was added to the medium starting at 80 μM in a 2-fold dilution rate of 0.16 μM. After 7 days, 10 μL of CCK-8 test solution (APExBIO Technology, Houston, TX, USA) was added into each well and incubated for 2 h at 37 °C. The optical density (OD) at 450 nm was measured with a microplate reader (Molecular Device, Sunnyvale, CA, USA). The cell viability rate at different concentrations of P9 treatment was determined with Prism, version 9.5.1 (GraphPad, San Diego, CA, USA).
On the technique in general: Tetrazolium dyes change colour on reduction, which living cells bring about.

The test system of experiment [1] is KYSE-520, SKBR3, U2OS, MCF7, H358 and A549 cells. The experiment can be described thus: Colony formation assay. Format: cell-based. Conditions: 3 weeks treatment. As for the experimental part: as §1
The next experiment concerns the target T1, SHP2 (Homo sapiens, UniProt Q06124).
T1 sequence (Q06124 1-593): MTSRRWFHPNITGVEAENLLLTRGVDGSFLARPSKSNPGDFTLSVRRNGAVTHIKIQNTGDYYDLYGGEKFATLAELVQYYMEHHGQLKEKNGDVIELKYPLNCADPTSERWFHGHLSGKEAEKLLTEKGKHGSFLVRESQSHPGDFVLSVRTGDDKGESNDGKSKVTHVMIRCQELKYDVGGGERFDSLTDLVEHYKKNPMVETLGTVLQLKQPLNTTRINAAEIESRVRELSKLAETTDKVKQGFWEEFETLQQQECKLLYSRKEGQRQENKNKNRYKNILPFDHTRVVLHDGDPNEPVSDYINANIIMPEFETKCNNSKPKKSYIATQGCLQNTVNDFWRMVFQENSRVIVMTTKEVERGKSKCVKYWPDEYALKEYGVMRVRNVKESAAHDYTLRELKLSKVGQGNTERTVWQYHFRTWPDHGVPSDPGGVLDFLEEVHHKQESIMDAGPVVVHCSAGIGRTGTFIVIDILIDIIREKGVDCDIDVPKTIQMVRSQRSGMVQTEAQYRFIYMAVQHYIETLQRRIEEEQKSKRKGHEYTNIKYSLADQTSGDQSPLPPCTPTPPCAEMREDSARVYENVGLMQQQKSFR
The experiment can be described thus: SHP2 degradation by Western blotting in HEK293 cells. The settings on record: HEK293 cells. Format: cell-based. The arrangement: endogenous in cells; host or cells: HEK293.

In the case of `Cc1ncsc1-c1ccc([C@H](C)NC(=O)[C@@H]2C[C@@H](O)CN2C(=O)[C@@H](NC(=O)CCCCCCCCCN2CCN(C(=O)CCCCCC3(CN)CCN(c4cnc(Sc5cccc(Cl)c5Cl)c(N)n4)CC3)CC2)C(C)(C)C)cc1` [P9, (2S,4R)-1-((S)-2-(10-(4-(6-(1-(6-amino-5-((2,3-dichlorophenyl)thio)pyrazin-2-yl)-4-(aminomethyl)piperidin-4-yl)hexanoyl)piperazin-1-yl)decanamido)-3,3-dimethylbutanoyl)-4-hydroxy-N-((S)-1-(4-(4-methylthiazol-5-yl)phenyl)ethyl)pyrrolidine-2-carboxamide], the EC50 – broadly, the midpoint of the concentration-response curve – with pERK1/2 is ~240 nM. The results for the “effect on tumor burden” value with KYSE-520 xenograft (25 mg/kg daily IP) and in the experiment with KYSE-520 xenograft (50 mg/kg daily IP) were “decrease in tumor burden” and “nearly complete tumor regression”, respectively. Further, the IC50 (in general, the concentration needed to halve the response being measured) with KYSE-520 cells was found to be 640 ± 130 nM. Besides, the “growth inhibition in colony formation assay compared with compound 3” value in experiment [1] is “improved efficacy in inhibiting the growth of these cancer cells”. The “time at which maximal SHP2 depletion was achieved” value on SHP2 stood at 16 h. Besides, at SHP2 (16 h of treatment, read-out: DC50 (concentration required for 50% degradation of protein)), the DC50 came out at 35.2 ± 1.5 nM. Besides, the hook effect entry on SHP2 (tested concentration range) is on record as “no significant hook effect”. On SHP2 (within 6 h of P9 treatment), the SHP2 protein degraded entry is recorded as “Over 90%”.
